# According to patent US20240132480A1, “INHIBITORS OF MYCOBACTERIUM TUBERCULOSIS LIPOAMIDE DEHYDROGENASE” (Cornell University, priority 2021, published 2024):
# Tests used:
# Mtb Lpd = Mtb Lpd (Mycobacterium tuberculosis (strain ATCC 25618 / H37Rv), UniProt P9WHH9); assay type: biochemical; settings: read-out: LPD IC50
# [1] = microsomes
smiles,measurement,setting,value
COCc1n[nH]c2c(S(=O)(=O)N(C)CC(=O)Nc3ccc(OC)c(C)c3)cc(C)cc12 [Example 28],IC50,Mtb Lpd,3640 µM
same,Human Liver Microsome Stability,[1],>768 µL/min/mg
Cc1cc(S(=O)(=O)N(C)CC(=O)Nc2ccc3c(c2)OCCO3)c2[nH]ncc2c1 [Example 29],IC50,Mtb Lpd,0.0109 µM
same,Human Liver Microsome Stability,[1],76 µL/min/mg
"Cc1cc(S(=O)(=O)N(C)CC(=O)Nc2ccc3c(c2)OCCN3C)c2[nH]ncc2c1 [Example 30, 2-((N,5-dimethyl-1H-indazole)-7-sulfonamido)-N-(4-methyl-3,4-dihydro-2H-benzo[b][1,4]oxazin-7-yl)acetamide]",IC50,Mtb Lpd,0.00363 µM
same,Human Liver Microsome Stability,[1],78 µL/min/mg
Cc1cc(S(=O)(=O)N(C)CC(=O)Nc2ccc3c(c2)N(C)CCO3)c2[nH]ncc2c1 [Example 31],IC50,Mtb Lpd,0.0165 µM
same,Human Liver Microsome Stability,[1],91 µL/min/mg
Cc1cc(S(=O)(=O)N(C)CC(=O)Nc2ccc(N3CCOCC3)c(C)c2)c2[nH]ncc2c1 [Example 32],IC50,Mtb Lpd,0.0043 µM
same,Human Liver Microsome Stability,[1],234 µL/min/mg
Cc1cc(NC(=O)CN(C)S(=O)(=O)c2cc(C3CC3)cc3cn[nH]c23)ccc1N1CCOCC1 [Example 34],IC50,Mtb Lpd,0.0067 µM
same,Human Liver Microsome Stability,[1],203 µL/min/mg
CN(CC(=O)Nc1ccn(C)c(=O)c1)S(=O)(=O)c1cc(C2CC2)cc2cn[nH]c12 [Example 35],IC50,Mtb Lpd,0.152 µM
same,Human Liver Microsome Stability,[1],91 µL/min/mg
Cc1cc(S(=O)(=O)N(C)CC(=O)Nc2ccn(C)c(=O)c2)c2[nH]nc(C)c2c1 [Example 36],IC50,Mtb Lpd,0.0657 µM
same,Human Liver Microsome Stability,[1],-26 µL/min/mg
CN(CC(=O)Nc1ccn(C)c(=O)c1)S(=O)(=O)c1cc(C(F)F)cc2cn[nH]c12 [Example 37],IC50,Mtb Lpd,0.0474 µM
same,Human Liver Microsome Stability,[1],22 µL/min/mg
Cc1cc(S(=O)(=O)N2CC[C@H]2C(=O)Nc2ccc3c(c2)OCCO3)c2[nH]ncc2c1 [Example 39],IC50,Mtb Lpd,0.0237 µM
same,Human Liver Microsome Stability,[1],76 µL/min/mg
Cc1cc(S(=O)(=O)N2CC[C@H]2C(=O)Nc2ccc3c(c2)OCCN3C)c2[nH]ncc2c1 [Example 40],IC50,Mtb Lpd,0.03 µM
same,Human Liver Microsome Stability,[1],78 µL/min/mg
Cc1cc(S(=O)(=O)N2CC[C@H]2C(=O)Nc2ccc3c(c2)N(C)CCO3)c2[nH]ncc2c1 [Example 41],IC50,Mtb Lpd,0.0356 µM
same,Human Liver Microsome Stability,[1],197 µL/min/mg
Cc1cc(S(=O)(=O)N(C)CC(=O)Nc2ccc(C3CCCCC3)c(C)c2)c2[nH]c(C)cc2c1 [Example 42],IC50,Mtb Lpd,0.573 µM
same,Human Liver Microsome Stability,[1],23 µL/min/mg
"Cc1cc(S(=O)(=O)N(C)CC(=O)Nc2ccn(C)c(=O)c2)c2[nH]ncc2c1F [Example 43, 2-((4-fluoro-N,5-dimethyl-1H-indazole)-7-sulfonamido)-N-(1-methyl-2-oxo-1,2-dihydropyridin-4-yl)acetamide]",IC50,Mtb Lpd,0.0498 µM
same,Human Liver Microsome Stability,[1],42 µL/min/mg
CNCc1n[nH]c2c(S(=O)(=O)N(C)CC(=O)Cc3ccn(C)c(=O)c3)cc(C)cc12 [Example 44],IC50,Mtb Lpd,0.13 µM
same,Human Liver Microsome Stability,[1],-2 µL/min/mg
CCN(CC(=O)NC1=CC(=O)C(C)C=C1)S(=O)(=O)c1cc(C)cc2cn[nH]c12 (stereo not shown) [Example 45],IC50,Mtb Lpd,0.0268 µM
same,Human Liver Microsome Stability,[1],39 µL/min/mg
"Cc1cc(S(=O)(=O)N(C)CC(=O)Nc2ccn3cccc3c2)c2[nH]ncc2c1 [Example 46, 2-((N,5-dimethyl-1H-indazole)-7-sulfonamido)-N-(imidazo[1,5-a]pyridin-7-yl)acetamide]",IC50,Mtb Lpd,0.0067 µM
same,Human Liver Microsome Stability,[1],4 µL/min/mg
Cc1cc(S(=O)(=O)N(CC(=O)NC2=CC(=O)C(C)C=C2)C(C)C)c2[nH]ncc2c1 (stereo not shown) [Example 47],IC50,Mtb Lpd,0.434 µM
same,Human Liver Microsome Stability,[1],-9 µL/min/mg
Cc1cc(S(=O)(=O)N(C)CC(=O)Nc2ccc3nccn3c2)c2n[nH]cc2c1 [Example 48],IC50,Mtb Lpd,0.0421 µM
same,Human Liver Microsome Stability,[1],36 µL/min/mg
Cc1cc(S(=O)(=O)N(C)CC(=O)NCc2ccccc2)c2n[nH]cc2c1 [Example 49],IC50,Mtb Lpd,0.031 µM
same,Human Liver Microsome Stability,[1],43 µL/min/mg
